Results published in patent US12636299B2, “Terpenoid derivatives, pharmaceutical preparations containing these derivatives and their use in neuroprotection” (UNIVERZITA PALACKEHO V OLOMOUCI, priority 2020, dated 2026).

Tests used:
[1] = test system: superoxide radical formation; experiment: Oxidative stress (superoxide radical formation, DHE) in 3NPA-induced model on SH-SY5Y; format: cell-based, human; conditions: 20 mM 3NPA = 100%, 24 hours
glial A-172 cells [2] = experiment: Cytotoxicity, Calcein AM viability assay on glial A-172 cells; format: cell-based, human; conditions: 48 hours
astrocyte A-172 cells = experiment: 3NPA-induced model of Huntington's disease, astrocyte A-172 cells; format: cell-based, human; conditions: difference to 10 mM 3NPA, 48 h
[3] = test system: human neuron-like SH-SY5Y cells; experiment: 3NPA-induced model of Huntington's disease, neuron-like SH-SY5Y cells; format: cell-based; conditions: difference to 20 mM 3NPA, 48 h
caspase-3,7 activity = experiment: Caspase-3,7 activity in salsolinol-induced model of PD on SH-SY5Y (Ac-DEVD-AMC); format: cell-based, human; conditions: Homo sapiens, SH-SY5Y, percentages of control (800 μM SAL = 100), 24 hour co-treatment, read-out: Caspase-3,7 activity (% of reduction)
[4] = test system: SH-SY5Y human neuroblastoma cell line; experiment: Cytotoxicity, Calcein AM viability assay on neuron-like SH-SY5Y cells; format: cell-based
Procedure: The SH-SY5Y human neuroblastoma cell line obtained from ECACC (The European Collection of Authenticated Cell Cultures) was cultivated in Dulbecco's modified Eagle's Medium and Ham's F12 Nutrient Mixture (DMEM:F-12, 1:1), supplemented with 10% fetal bovine serum (FBS) and 1% penicillin and streptomycin at 37° C. in a humidified atmosphere 5% CO2, 95% humidity in passage limit up to ECACC+20. The assay was performed in 96-well microplate with 7000 SH-SY5Y cells per well. After 48 h, old DMEM/F12 media was removed by fresh media containing tested compounds at 0.1, 1 and 10 μM concentrations for 24 h. Glial cell line A-172 purchased from ATCC and grown in same conditions as SH-SY5Y cell line. A-172 cells were seeded in density 2000 cells per well and growing medium was replaced by treatment medium containing tested compounds in 0.1, 1 and 10 μM concentration; or in higher concentrations for R-LA or NAC positive controls for 48 hours. All tested compounds dissolved in DMSO were added into the medium. The maximum concentration of DMSO in media was kept below 0.1% (v/v). The cell viability was measured by Calcein AM (1 mg/ml ThermoFisher) viability assay. Solution of Calcein AM in PBS (0.75 μM) was pipetted to cells and incubated for 50 min. After that the fluorescence was measured at 488/517 nm (excitation/emission) using microplate reader Infinite M200 (TECAN). Calcein AM assay is based on the dye-intracellular-esterase cleavage of non-fluorescent dye (Calcein AM) by living cells to fluorescent dye (Calcein), while dying cells lose such ability. The values in Table 2 show the % of viability compared to control for all tested compounds. The results from DMSO control (medium with DMSO, <0.1% (v/v)) was postulated as 100% viability (see the first line of Table 2).

[5] = test system: human neuron-like SH-SY5Y cells; experiment: 3NPA-induced model of Huntington's disease, neuron-like SH-SY5Y cells; format: cell-based; conditions: 10 μM (NAC), difference to 20 mM 3NPA, 48 h
Procedure: Before application of toxin 3-nitropropionic acid (3NPA) for mimicking Huntington's disease, the 3NPA was dissolved in water and neutralized by sodium hydroxide. SH-SY5Y cells were seeded in the same density and differentiated by the procedure shown above. Astrocyte cells A-172 were also seeded as described in previous section. Both cell lines were co-treated by 3NPA (20 mM for SH-SY5Y cells, […]) and tested compounds at 0.1, 1 and 10 μM concentration for 48 h.

[6] = test system: human neuroblastoma cell line SH-SY5Y; experiment: Viability of differentiated SH-SY5Y in salsolinol-induced model of PD (Calcein AM); format: cell-based; conditions: difference between 800 μM SAL and co-treatment group means, 24 hours
glial A-172 cells [7] = experiment: Cytotoxicity, Calcein AM viability assay on glial A-172 cells; format: cell-based, human; conditions: NAC at 1000 μM
Procedure: The assay was performed in 96-well microplate with 7000 SH-SY5Y cells per well. After 48 h, old DMEM/F12 media was removed by fresh media containing tested compounds at 0.1, 1 and 10 μM concentrations for 24 h. Glial cell line A-172 purchased from ATCC and grown in same conditions as SH-SY5Y cell line. […] All tested compounds dissolved in DMSO were added into the medium. The maximum concentration of DMSO in media was kept below 0.1% (v/v). The cell viability was measured by Calcein AM (1 mg/ml ThermoFisher) viability assay. Solution of Calcein AM in PBS (0.75 μM) was pipetted to cells and incubated for 50 min. After that the fluorescence was measured at 488/517 nm (excitation/emission) using microplate reader Infinite M200 (TECAN). Calcein AM assay is based on the dye-intracellular-esterase cleavage of non-fluorescent dye (Calcein AM) by living cells to fluorescent dye (Calcein), while dying cells lose such ability.

CC(=O)N[C@@H](CS)C(=O)O [NAC, N-acetyl cysteine, reference compound]
Superoxide radical formation (oxidative stress) % ([1]; 10 μM (NAC)): 79.6%
Superoxide radical formation (oxidative stress) % ([1]; 100 μM (NAC)): 79.7%
Superoxide radical formation (oxidative stress) % ([1]; 1000 μM (NAC)): 48.5%
viability, percentage of DMSO control (glial A-172 cells [2]; 10 μM (NAC)): 102.9%
viability, percentage of DMSO control (glial A-172 cells [2]; 100 μM (NAC)): 96.6%
viability, percentage of DMSO control (glial A-172 cells [2]; 1000 μM (NAC)): 83.0%
Astro-protective effect (% of control) (astrocyte A-172 cells; A-172, column head 0.5 μM (positive controls)): N/A (N/A = no protection)
Astro-protective effect (% of control) (astrocyte A-172 cells; A-172, column head 5 μM (positive controls)): N/A (N/A = no protection)
Astro-protective effect (% of control) (astrocyte A-172 cells; A-172, column head 50 μM (positive controls)): N/A (N/A = no protection)
Neuro-protective effect (% of control) ([3]; 100 μM (NAC)): 51.35 % of control
Neuro-protective effect (% of control) ([3]; 1000 μM (NAC)): 65.72 % of control
activity at 100 µM (caspase-3,7 activity; 100 μM (NAC)): 60.4%
activity at 1000 µM (caspase-3,7 activity; 1000 μM (NAC)): 55.2%
viability, percentage of DMSO control ([4]; 10 μM (NAC)): 92.7%
viability, percentage of DMSO control ([4]; 100 μM (NAC)): 97.5%
viability, percentage of DMSO control ([4]; 1000 μM (NAC)): 101.5%
Neuro-protective effect (% of control) [5]: N/A (N/A = no protection)
Neuroprotective effect (% of control) ([6]; 10 μM (NAC)): N/A (N/A = no protection)
Neuroprotective effect (% of control) ([6]; 100 μM (NAC)): N/A (N/A = no protection)
Neuroprotective effect (% of control) ([6]; 1000 μM (NAC)): 16.15 % of control
effect on viability of astrocytes, in words (glial A-172 cells [7]): slight decrease in percentage of living cells
